How the values were obtained:
[1] = biological target: adenosine A2A receptor (Homo sapiens (Human), UniProt P29274); assay: Adenosine receptor activity assay (Table 1), A2A activity; format: biochemical; conditions: read-out: Ave A2A cAMP IC50
[2] = biological target: adenosine A2B receptor (Homo sapiens (Human), UniProt P29275); assay: Adenosine receptor activity assay (Table 1), A2B activity; format: biochemical; conditions: for Ratio: A2A activity to the A2B activity, A2A/A2B; for IC50: read-out: Ave A2B cAMP IC50
Sequence of adenosine A2B receptor (P29275 whole entry): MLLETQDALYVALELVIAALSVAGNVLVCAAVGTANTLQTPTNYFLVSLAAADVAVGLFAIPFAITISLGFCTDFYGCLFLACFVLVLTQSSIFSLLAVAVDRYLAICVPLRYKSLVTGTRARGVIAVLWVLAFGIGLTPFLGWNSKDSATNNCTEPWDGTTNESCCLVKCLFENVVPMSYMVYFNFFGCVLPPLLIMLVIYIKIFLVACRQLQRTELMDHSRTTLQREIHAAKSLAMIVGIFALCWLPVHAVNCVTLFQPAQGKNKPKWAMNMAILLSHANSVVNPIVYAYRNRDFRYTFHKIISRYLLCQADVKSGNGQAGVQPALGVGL

Sequence of adenosine A2A receptor (P29274 whole entry): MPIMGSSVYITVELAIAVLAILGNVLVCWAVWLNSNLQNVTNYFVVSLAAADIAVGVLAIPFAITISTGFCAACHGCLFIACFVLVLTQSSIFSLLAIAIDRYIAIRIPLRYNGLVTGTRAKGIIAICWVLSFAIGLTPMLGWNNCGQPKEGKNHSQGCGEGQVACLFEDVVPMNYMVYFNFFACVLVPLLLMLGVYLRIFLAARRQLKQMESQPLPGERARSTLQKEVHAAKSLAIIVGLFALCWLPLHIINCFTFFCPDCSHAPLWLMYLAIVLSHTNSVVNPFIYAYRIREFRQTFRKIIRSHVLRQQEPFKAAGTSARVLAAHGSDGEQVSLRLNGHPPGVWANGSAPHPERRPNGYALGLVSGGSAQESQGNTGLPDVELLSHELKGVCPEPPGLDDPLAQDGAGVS

Structure (SMILES)	IC50 [1]	Ratio [2]	IC50 [2]
COc1ncccc1CNC(=O)c1nc(N[C@@H](C)c2ccccn2)nc2ccsc12 [Example Z449, (S)—N-((2-Methoxypyridin-3-yl)methyl)-2-((1-(pyridin-2-yl)ethyl)amino)thieno[3,2-d]pyrimidine-4-carboxamide]	> 500 nM	0.91	> 500 nM
C[C@H](Nc1nc(C(=O)NCCc2ccc(C(=O)O)cc2)c2sccc2n1)c1cncc(F)c1 [Example Z452, (S)-4-(2-(2-((1-(5-Fluoropyridin-3-yl)ethyl)amino)thieno[3,2-d]pyrimidine-4-carboxamido)ethyl)benzoic acid]	> 500 nM	19.85	100 to 500 nM
CCOc1ccc(CNc2nc(C(=O)N3CCC3)c3sccc3n2)cn1 [Example Z453, Azetidin-1-yl(2-(((6-ethoxypyridin-3-yl)methyl)amino)thieno[3,2-d]pyrimidin-4-yl)methanone]	100 to 500 nM	0.43	100 to 500 nM
C[C@H](Nc1nc(C(=O)NCCc2ccc(S(N)(=O)=O)cc2)c2sccc2n1)c1cncc(F)c1 [Example Z454, (S)-2-((1-(5-Fluoropyridin-3-yl)ethyl)amino)-N-(4-sulfamoylphenethyl)thieno[3,2-d]pyrimidine-4-carboxamide]	> 500 nM	38.75	10 to 50 nM
C[C@H](Nc1nc(C(=O)NCCc2ccc(S(C)(=O)=O)cc2)c2sccc2n1)c1cncc(F)c1 [Example Z455, (S)-2-((1-(5-Fluoropyridin-3-yl)ethyl)amino)-N-(4-(methylsulfonyl)phenethyl)thieno[3,2-d]pyrimidine-4-carboxamide]	> 500 nM	3.91	100 to 500 nM
Cc1cc2nc(N[C@@H](C)c3cccnc3)nc(C(=O)NCc3ccccn3)c2s1 [Example Z457, (S)-6-Methyl-N-(pyridin-2-ylmethyl)-2-((1-(pyridin-3-yl)ethyl)amino)thieno[3,2-d]pyrimidine-4-carboxamide]	100 to 500 nM	2.73	50 to 100 nM
CCNC(=O)c1nc(NCCc2ccc(O)cc2)nc2ccsc12 [Example Z460, N-Ethyl-2-((4-hydroxyphenethyl)amino)thieno[3,2-d]pyrimidine-4-carboxamide]	100 to 500 nM	0.84	100 to 500 nM
COc1ccc([C@H](C)Nc2nc(C(=O)NCc3ccccn3)c3sccc3n2)cc1 [Example Z466, (S)-2-((1-(4-Methoxyphenyl)ethyl)amino)-N-(pyridin-2-ylmethyl)thieno[3,2-d]pyrimidine-4-carboxamide]	10 to 50 nM	0.05	> 500 nM
COC[C@H]1CCN(C(=O)c2nc(N[C@@H](C)c3ccccn3)nc3ccsc23)C1 [Example Z470, ((S)-3-(Methoxymethyl)pyrrolidin-1-yl)(2-(((S)-1-(pyridin-2-yl)ethyl)amino)thieno[3,2-d]pyrimidin-4-yl)methanone]	100 to 500 nM	1.07	50 to 100 nM
COC[C@@H]1CCN(C(=O)c2nc(N[C@@H](C)c3ccccn3)nc3ccsc23)C1 [Example Z471, ((R)-3-(Methoxymethyl)pyrrolidin-1-yl)(2-(((S)-1-(pyridin-2-yl)ethyl)amino)thieno[3,2-d]pyrimidin-4-yl)methanone]	100 to 500 nM	7.81	50 to 100 nM
C[C@H](Nc1nc(C(=O)N2CC[C@H](NC(=O)OCc3ccccc3)C2)c2sccc2n1)c1cncc(F)c1 [Example Z472, Benzyl ((S)-1-(2-(((S)-1-(5-fluoropyridin-3-yl)ethyl)amino)thieno[3,2-d]pyrimidine-4-carbonyl)pyrrolidin-3-yl)carbamate]	> 500 nM	8.61	10 to 50 nM
COc1ccc(CNC(=O)c2nc(N[C@@H](C)c3ccccn3)nc3ccsc23)cc1 [Example Z474, (S)—N-(4-Methoxybenzyl)-2-((1-(pyridin-2-yl)ethyl)amino)thieno[3,2-d]pyrimidine-4-carboxamide]	50 to 100 nM	0.80	50 to 100 nM
C[C@H](Nc1nc(C(=O)NCCc2ccc(NC(=O)OC(C)(C)C)cc2)c2sccc2n1)c1cncc(F)c1 [Example Z482, tert-Butyl (S)-(4-(2-(2-((1-(5-fluoropyridin-3-yl)ethyl)amino)thieno[3,2-d]pyrimidine-4-carboxamido)ethyl)phenyl)carbamate]	> 500 nM	5.32	100 to 500 nM
Cc1cc2nc(N[C@@H](C)c3cncc(F)c3)nc(C(=O)N3CC(N(C)C(=O)OC(C)(C)C)C3)c2s1 [Example Z484, tert-Butyl (S)-(1-(2-((1-(5-fluoropyridin-3-yl)ethyl)amino)-6-methylthieno[3,2-d]pyrimidine-4-carbonyl)azetidin-3-yl)(methyl)carbamate]	100 to 500 nM	4.16	10 to 50 nM
COC1(C)CN(C(=O)c2nc(N[C@@H](C)c3ccccn3)nc3ccsc23)C1 [Example Z486, (S)-(3-Methoxy-3-methylazetidin-1-yl)(2-((1-(pyridin-2-yl)ethyl)amino)thieno[3,2-d]pyrimidin-4-yl)methanone]	> 500 nM	10.58	50 to 100 nM
Cc1cc2nc(N[C@@H](C)c3cncc(F)c3)nc(C(=O)NCCC3CCN(C(=O)OC(C)(C)C)CC3)c2s1 [Example Z487, tert-Butyl (S)-4-(2-(2-((1-(5-fluoropyridin-3-yl)ethyl)amino)-6-methylthieno[3,2-d]pyrimidine-4-carboxamido)ethyl)piperidine-1-carboxylate]	> 500 nM	6.54	100 to 500 nM
C[C@H](Nc1nc(C(=O)NCCc2ccc(N)cc2)c2sccc2n1)c1cncc(F)c1 [Example Z493, (S)—N-(4-Aminophenethyl)-2-((1-(5-fluoropyridin-3-yl)ethyl)amino)thieno[3,2-d]pyrimidine-4-carboxamide]	> 500 nM	17.90	50 to 100 nM
Cc1cc2nc(N[C@@H](C)c3cccnc3)nc(C(=O)N3CC(CNC(=O)OC(C)(C)C)C3)c2s1 [Example Z498, tert-Butyl (S)-((1-(6-methyl-2-((1-(pyridin-3-yl)ethyl)amino)thieno[3,2-d]pyrimidine-4-carbonyl)azetidin-3-yl)methyl)carbamate]	> 500 nM	5.78	100 to 500 nM
Cc1cc2nc(N[C@@H](C)c3cccnc3)nc(C(=O)N3CC(CN)C3)c2s1 [Example Z499, (S)-(3-(Aminomethyl)azetidin-1-yl)(6-methyl-2-((1-(pyridin-3-yl)ethyl)amino)thieno[3,2-d]pyrimidin-4-yl)methanone]	> 500 nM	13.99	> 500 nM
Cc1cc2nc(N[C@@H](C)c3cccnc3)nc(C(=O)NCC[C@@H]3CCNC3)c2s1 [Example Z500, 6-Methyl-2-(((S)-1-(pyridin-3-yl)ethyl)amino)-N-(2-((S)-pyrrolidin-3-yl)ethyl)thieno[3,2-d]pyrimidine-4-carboxamide]	> 500 nM	12.75	> 500 nM
Cc1cc2nc(N[C@@H](C)c3cccnc3)nc(C(=O)NCC[C@H]3CCNC3)c2s1 [Example Z501, 6-Methyl-2-(((S)-1-(pyridin-3-yl)ethyl)amino)-N-(2-((R)-pyrrolidin-3-yl)ethyl)thieno[3,2-d]pyrimidine-4-carboxamide]	> 500 nM	8.68	> 500 nM
Cc1cc2nc(N[C@@H](C)c3cncc(F)c3)nc(C(=O)N3CC(CN(C)C)C3)c2s1 [Example Z502, (S)-(3-((Dimethylamino)methyl)azetidin-1-yl)(2-((1-(5-fluoropyridin-3-yl)ethyl)amino)-6-methylthieno[3,2-d]pyrimidin-4-yl)methanone]	50 to 100 nM	4.89	10 to 50 nM
Cc1cc2nc(N[C@@H](C)c3cccnc3)nc(C(=O)N[C@H]3C[C@@H](O)C3)c2s1 [Example Z503, N-((1s,3R)-3-hydroxycyclobutyl)-6-methyl-2-(((S)-1-(pyridin-3-yl)ethyl)amino)thieno[3,2-d]pyrimidine-4-carboxamide]	> 500 nM	18.01	10 to 50 nM
Cc1cc2nc(N[C@@H](C)c3cccnc3)nc(C(=O)N3CC(CNC(=O)C(C)(C)C)C3)c2s1 [Example Z505, (S)—N-((1-(6-Methyl-2-((1-(pyridin-3-yl)ethyl)amino)thieno[3,2-d]pyrimidine-4-carbonyl)azetidin-3-yl)methyl)pivalamide]	100 to 500 nM		100 to 500 nM
COCC1CN(C(=O)c2nc(N[C@@H](C)c3ccccn3)nc3cc(C)sc23)C1 [Example Z514, (S)-(3-(Methoxymethyl)azetidin-1-yl)(6-methyl-2-((1-(pyridin-2-yl)ethyl)amino)thieno[3,2-d]pyrimidin-4-yl)methanone]	10 to 50 nM	5.47	< 10 nM
Cc1cc2nc(N[C@@H](C)c3cccnc3)nc(C(=O)N3CC(CN(C)C)C3)c2s1 [Example Z516, (S)-(3-((Dimethylamino)methyl)azetidin-1-yl)(6-methyl-2-((1-(pyridin-3-yl)ethyl)amino)thieno[3,2-d]pyrimidin-4-yl)methanone]	> 500 nM	8.08	> 500 nM
Cc1cc2nc(N[C@@H](C)c3cncc(F)c3)nc(C(=O)NCCC3CN(C(=O)C(F)(F)F)C3)c2s1 [Example Z521, (S)-2-((1-(5-Fluoropyridin-3-yl)ethyl)amino)-6-methyl-N-(2-(1-(2,2,2-trifluoroacetyl)azetidin-3-yl)ethyl)thieno[3,2-d]pyrimidine-4-carboxamide]	> 500 nM	0.06	> 500 nM
C[C@H](Nc1nc(C(=O)N2CC(CN(C)C(=O)OC(C)(C)C)C2)c2sccc2n1)c1cncc(F)c1 [Example Z525, tert-Butyl (S)-((1-(2-((1-(5-Fluoropyridin-3-yl)ethyl)amino)thieno[3,2-d]pyrimidine-4-carbonyl)azetidin-3-yl)methyl)(methyl)carbamate]	100 to 500 nM	3.05	50 to 100 nM

Reference: patent US11254686B1 (Corvus Pharmaceuticals, Inc., priority 2017, dated 2022)
